Results: patent US20090123925A1, “CANCER THERAPY PROGNOSIS AND TARGET” (priority 2005, published 2009)
Like-named read-outs stand apart in the source and are kept apart here. Where a SMILES comes first, the peptide text is derived from it. The star is where a group is joined. Cbz = O=C(OCc1ccccc1)*; CH2F = FC*

Key:
Assay type in all cases: cell-based, human
A549 wt cells = conditions: wild-type or resistant A549 NSCLC cells; data not shown
Experimental: The human NSCLC cell line A549 [from ATCC; CCL-185] was maintained in F12-K and RPMI 1640 (supplemented with 10% foetal bovine serum (FBS), 100 U/ml penicillin, and 100 μg/ml streptomycin at 37° C., 5% CO2) in an incubator.
(§1) Cytotoxicity of each platinum drug in each cell line was determined by MTT (3-(4,5-dimethylthiazole-2-yl)-2,5-diphenyl tetrazolium bromide, Sigma) assay. Cells were seeded onto 96-well plates at a density of 2-3×10^3 cells per well and cultured for 24 hours. Then cells were incubated with relevant concentrations of carboplatin, cisplatin or oxaliplatin for 72 hours. After treatment, 30 μl of MTT (5 mg/ml) in PBS was incubated with cells in a 96-well plate for 4 h at 37° C. Subsequently, the medium containing MTT was removed, and 200 μl of DMSO was added to each well and shaken for 15 minutes. Spectrophotometric absorbance of each well was measured at 560 nm and 630 nm on a microplate reader (Bio-Rad, model 3550). GraphPad Prism 2.01 was used to calculate the IC50 of each platinum drug in different cell lines.
CA-074 Methyl ester (Sigma) was used to inhibit cathepsin B and caspase inhibitor I: (Z-VAD (OMe)-FMK, Calbiochem, UK) to inhibit caspases. […]

[1] = tested on: oxaliplatin-resistant A549 cells (A549ox3, A549ox7.5); conditions: MTT, 72 hours
Source text: (§2) The A549 cisplatin-, carboplatin- and oxaliplatin-cells were derived from the A549WT cell lines, by maintaining the cells in increasing concentrations of the relevant drug. […] This generated cisplatin-(A549cis1, A549cis2.5, A549cis5, A549cis7.5 and A549cis10), carboplatin-(A549car1, A549car2.5, A549car5, A549car10, A549car15 and A549car17.5) and oxaliplatin-(A549oxa2.5, A549oxa3, A549ox3.5, A549ox5 and A549oxa7.5) resistant A549 cell lines. The cells were exposed to each drug concentration for at least a 4-week period and allowed to recover in drug-free medium for a minimum of 2 weeks, before culture in a higher concentration of drug.
as §1
(§3) CA-074 Methyl ester (Sigma) was used to inhibit cathepsin B and caspase inhibitor I: (Z-VAD (OMe)-FMK, Calbiochem, UK) to inhibit caspases. Cathepsin L and K selective inhibitors (Cathepsin L inhibitor IV: Z-FF-FMK and Cathepsin K inhibitor I: 1,3-Bis (N-carbobenzoyloxy-L-leucyl) amino acetone, respectively (Calbiochem, UK)) and non-selective broad range cathepsin inhibitor (E-64d; (2S, 3S)-trans-epoxysuccinyl-L-leucylamido-3-methylbutane ethyl ester (Sigma, UK) were used to inhibit cysteine proteases.

[2] = tested on: carboplatin-resistant A549 cells (A549car15, A549car17.5); conditions: for Fold change of IC50 in resistant line vs. A549 parental line: A549car15 (exposed up to 15 μM carboplatin), MTT, 72 hours
Source text: as §2, §1, §3

[3] = tested on: cisplatin-resistant A549 cells (A549cis7.5, A549cis10); conditions: for Fold change of IC50 in resistant line vs. A549 parental line: A549cis7.5 (exposed up to 7.5 μM cisplatin), MTT, 72 hours
Source text: as §2, §1, §3

[4] = A549ox7.5 (exposed up to 7.5 μM oxaliplatin)

Q: `COC(=O)C[C@H](NC(=O)[C@H](C)NC(=O)[C@@H](NC(=O)OCc1ccccc1)C(C)C)C(=O)CF` [caspase inhibitor I, Z-VAD (OMe)-FMK] (Cbz-Val-Ala-Asp(OMe)-CH2F) was tested. Which “Effect of caspase inhibition on sensitivity to platinum drugs” value (A549 wt cells) did it give?
A: did not alter

Q: Which results are given for `N.N.[Cl][Pt][Cl]` [cisplatin]?
A: Fold change of IC50 in resistant line vs. A549 parental line [1, 4]: 1.8 fold; Fold change of IC50 in resistant line vs. A549 parental line [2]: 3.02 fold; Level of resistance at higher drug concentration ([3]; A549 cells exposed to 10 μM cisplatin, compared with 7.5 μM): remained unchanged

Q: With `O=C1[O][Pt]2([NH][C@@H]3CCCC[C@H]3[NH]2)[O]C1=O` [oxaliplatin] as the compound, how does the “Fold change of IC50 in resistant line vs. A549 parental line” value (“Fold change of IC50” below) ([1]; A549 cells exposed up to 3 μM oxaliplatin) read?
A: 3 fold

Q: And the “Fold change of IC50” value [1, 4]?
A: 5.3 fold

Q: What about the “Fold change of IC50” value [2] of the same compound?
A: 0.47 fold

Q: What about the “Fold change of IC50” value [3] of the same compound?
A: 0.54 fold

Q: For `N.N.O=C([O-])C1(C(=O)[O-])CCC1.[Pt+2]` [carboplatin], which “Fold change of IC50” value [1, 4] is on record?
A: 1.5 fold

Q: What about the “Level of resistance at higher drug concentration” value ([2]; A549 cells exposed to 17.5 μM carboplatin, compared with 15 μM) of the same compound?
A: remained unchanged

Q: What about the “Fold change of IC50” value [3] of the same compound?
A: 3.4 fold
